{"source": "ChEMBL document CHEMBL4680139", "about": "“Antiproliferative activity of diarylnaphthylpyrrolidine derivative via dual target inhibition” (Eur J Med Chem, 2020)", "key": {"[1]": {"experiment": "Toxicity in Swiss albino mouse assessed as mortality upto 300 mg/kg, po administered as single dose", "assay_type": "organism-based", "conditions": "in vivo"}, "MCF7 [2]": {"tested_on": "MCF7", "experiment": "Induction of cell cycle arrest in human MCF-7 cells assessed as accumulation at G0/G1 phase at 2.17 uM by propidium iodide staining based flow cytometry (reference value: 74.5%)", "assay_type": "functional"}, "[3]": {"experiment": "Toxicity in Swiss albino mouse assessed as WBC level in blood at 50 mg/kg, po administered as single dose (reference value: 17.06 +/- 1.33x10^3/mm3)", "assay_type": "organism-based", "conditions": "in vivo"}, "[4]": {"experiment": "Toxicity in Swiss albino mouse assessed as SGOT level in serum at 50 mg/kg, po administered as single dose (reference value: 22.12 +/-1.91 U/L)", "assay_type": "organism-based", "conditions": "in vivo"}, "[5]": {"experiment": "Toxicity in Swiss albino mouse assessed as morbidity upto 300 mg/kg, po administered as single dose", "assay_type": "organism-based", "conditions": "in vivo"}, "MCF7 [6]": {"tested_on": "MCF7", "experiment": "Antiproliferative activity against human MCF-7 cells assessed as inhibition of cell growth measured after 48 hrs by SRB assay", "assay_type": "functional, cell-based", "conditions": "MCF7, 48 h"}, "[7]": {"experiment": "Toxicity in Swiss albino mouse assessed as SGOT level in serum at 300 mg/kg, po administered as single dose (reference value: 22.12 +/-1.91 U/L)", "assay_type": "organism-based", "conditions": "in vivo"}, "MCF7 [8]": {"tested_on": "MCF7", "experiment": "Antiproliferative activity against human MCF-7 cells assessed as proportion of live cells at 6.25 ug/ml measured after 3 weeks by crystal violet staining based soft agar colony formation assay (reference value: 100%)", "assay_type": "functional", "conditions": "dose 6.25 µg/ml"}, "MDA-MB-231 [9]": {"tested_on": "MDA-MB-231", "experiment": "Induction of cell cycle arrest in human MDA-MB-231 cells assessed as accumulation at S phase at 2.6 uM by propidium iodide staining based flow cytometry (reference value: 11.35 +/- 0.07%)", "assay_type": "functional"}, "MDA-MB-231 [10]": {"tested_on": "MDA-MB-231", "experiment": "Induction of apoptosis in human MDA-MB-231 cells assessed as proportion of late apoptotic cells at 10.42 uM measured after 24 hrs by Annexin V-FITC/propidium iodide staining based flow cytometry (reference value: 0.5%)", "assay_type": "functional"}, "[11]": {"experiment": "Toxicity in Swiss albino mouse assessed as haemoglobin level in blood at 5 mg/kg, po administered as single dose (reference value: 12.05 +/-0.88 gm/dl)", "assay_type": "organism-based", "conditions": "in vivo"}, "[12]": {"experiment": "Toxicity in Swiss albino mouse assessed as creatinine level in serum at 50 mg/kg, po administered as single dose (reference value: 0.27+/-0.02 mg/dl)", "assay_type": "organism-based", "conditions": "in vivo"}, "MCF7 [13]": {"tested_on": "MCF7", "experiment": "Antiproliferative activity against human MCF-7 cells assessed as proportion of dead cells at 12.5 ug/ml measured after 3 weeks by crystal violet staining based soft agar colony formation assay", "assay_type": "functional", "conditions": "dose 12.5 µg/ml"}, "[14]": {"experiment": "Toxicity in Swiss albino mouse assessed as body weight at 300 mg/kg, po administered as single dose (reference value: 31.62 +/- 1.64 gms)", "assay_type": "organism-based", "conditions": "in vivo"}, "MCF7 [15]": {"tested_on": "MCF7", "experiment": "Induction of apoptosis in human MCF-7 cells assessed as proportion of necrotic cells at 2.17 uM measured after 24 hrs by Annexin V- FITC/propidium iodide staining based flow cytometry (reference value: 5.3%)", "assay_type": "functional"}, "[16]": {"experiment": "Toxicity in Swiss albino mouse assessed as haemoglobin level in blood at 300 mg/kg, po administered as single dose (reference value: 12.05 +/-0.88 gm/dl)", "assay_type": "organism-based", "conditions": "in vivo"}, "[17]": {"experiment": "Toxicity in Swiss albino mouse assessed as cholesterol level in serum at 50 mg/kg, po administered as single dose (reference value: 103.62 +/-7.45 mg/dl)", "assay_type": "organism-based", "conditions": "in vivo"}, "MCF7 [18]": {"tested_on": "MCF7", "experiment": "Antiproliferative activity against human MCF-7 cells assessed as proportion of live cells at 25 ug/ml measured after 3 weeks by crystal violet staining based soft agar colony formation assay (reference value: 100%)", "assay_type": "functional", "conditions": "dose 25 µg/ml"}, "[19]": {"experiment": "Toxicity in Swiss albino mouse assessed as albumin level in serum at 5 mg/kg, po administered as single dose (reference value: 0.56 +/-0.02 g/dl)", "assay_type": "organism-based", "conditions": "in vivo"}, "MCF7 [20]": {"tested_on": "MCF7", "experiment": "Induction of cell cycle arrest in human MCF-7 cells assessed as accumulation at G2/M phase at 8.66 uM by propidium iodide staining based flow cytometry (reference value: 15.2%)", "assay_type": "functional"}, "[21]": {"experiment": "Toxicity in Swiss albino mouse assessed as cholesterol level in serum at 5 mg/kg, po administered as single dose (reference value: 103.62 +/-7.45 mg/dl)", "assay_type": "organism-based", "conditions": "in vivo"}, "THP-1": {"tested_on": "THP-1", "experiment": "Antiproliferative activity against human THP-1 cells assessed as inhibition of cell growth measured after 48 hrs by SRB assay", "assay_type": "functional, cell-based", "conditions": "THP-1, 48 h"}, "MDA-MB-231 [22]": {"tested_on": "MDA-MB-231", "experiment": "Induction of cell cycle arrest in human MDA-MB-231 cells assessed as accumulation at G2/M phase at 10.42 uM by propidium iodide staining based flow cytometry (reference value: 8.35 +/-0.07%)", "assay_type": "functional"}, "[23]": {"experiment": "Toxicity in Swiss albino mouse assessed as SGPT level in serum at 300 mg/kg, po administered as single dose (reference value: 21.81 +/-2.1 U/L)", "assay_type": "organism-based", "conditions": "in vivo"}, "[24]": {"experiment": "Toxicity in Swiss albino mouse assessed as SGOT level in serum at 5 mg/kg, po administered as single dose (reference value: 22.12 +/-1.91 U/L)", "assay_type": "organism-based", "conditions": "in vivo"}, "MDA-MB-231 [25]": {"tested_on": "MDA-MB-231", "experiment": "Induction of apoptosis in human MDA-MB-231 cells assessed as proportion of late apoptotic cells at 5.21 uM measured after 24 hrs by Annexin V-FITC/propidium iodide staining based flow cytometry (reference value: 0.5%)", "assay_type": "functional"}, "[26]": {"experiment": "Toxicity in Swiss albino mouse assessed as triglyceride level in serum at 50 mg/kg, po administered as single dose (reference value: 78.34 +/-2.99 mg/dl)", "assay_type": "organism-based", "conditions": "in vivo"}, "MDA-MB-231 [27]": {"tested_on": "MDA-MB-231", "experiment": "Induction of apoptosis in human MDA-MB-231 cells assessed as proportion of necrotic cells at 2.6 uM measured after 24 hrs by Annexin V-FITC/propidium iodide staining based flow cytometry (reference value: 0.2%)", "assay_type": "functional"}, "A549": {"tested_on": "A549", "experiment": "Antiproliferative activity against human A549 cells assessed as inhibition of cell growth measured after 48 hrs by SRB assay", "assay_type": "functional, cell-based", "conditions": "A549, 48 h"}, "MDA-MB-231 [28]": {"tested_on": "MDA-MB-231", "experiment": "Induction of apoptosis in human MDA-MB-231 cells assessed as proportion of necrotic cells at 10.42 uM measured after 24 hrs by Annexin V-FITC/propidium iodide staining based flow cytometry (reference value: 0.2%)", "assay_type": "functional"}, "MCF7 [29]": {"tested_on": "MCF7", "experiment": "Induction of apoptosis in human MCF-7 cells assessed as proportion of viable cells at 2.17 uM measured after 24 hrs by Annexin V- FITC/propidium iodide staining based flow cytometry (reference value: 94.6%)", "assay_type": "functional"}, "[30]": {"experiment": "Toxicity in Swiss albino mouse assessed as serum protein level at 300 mg/kg, po administered as single dose (reference value: 2.83 +/-0.09 mg/ml)", "assay_type": "organism-based", "conditions": "in vivo"}, "MDA-MB-231 [31]": {"tested_on": "MDA-MB-231", "experiment": "Induction of apoptosis in human MDA-MB-231 cells assessed as proportion of late apoptotic cells at 2.6 uM measured after 24 hrs by Annexin V-FITC/propidium iodide staining based flow cytometry (reference value: 0.5%)", "assay_type": "functional"}, "MDA-MB-231 [32]": {"tested_on": "MDA-MB-231", "experiment": "Induction of cell cycle arrest in human MDA-MB-231 cells assessed as accumulation at S phase at 5.21 uM by propidium iodide staining based flow cytometry (reference value: 11.35 +/- 0.07%)", "assay_type": "functional"}, "MCF7 [33]": {"tested_on": "MCF7", "experiment": "Induction of apoptosis in human MCF-7 cells at 2.17 uM by propidium iodide staining based flow cytometry (reference value: 2.1%)", "assay_type": "functional"}}}
{"compound": "COc1ccc(C(c2ccccc2OCCN2CCCC2)c2cccc3ccccc23)c(OC)c1OC", "note": "(stereo not given)", "values": [{"measurement": "Activity", "setting": "[1]", "value": "Non-Toxic"}, {"measurement": "Activity", "setting": "MCF7 [2]", "value": 74.6, "unit": "%"}, {"measurement": "Activity", "setting": "[3]", "value": "13.46 10^3/mm3"}, {"measurement": "Activity", "setting": "[4]", "value": 25.42, "unit": "U/L"}, {"measurement": "Activity", "setting": "[5]", "value": "Non-Toxic"}, {"measurement": "IC50", "setting": "MCF7 [6]", "value": 4.33, "unit": "µM"}, {"measurement": "Activity", "setting": "[7]", "value": 25.61, "unit": "U/L"}, {"measurement": "Activity", "setting": "MCF7 [8]", "value": 70.77, "unit": "%"}, {"measurement": "Activity", "setting": "MDA-MB-231 [9]", "value": 6.75, "unit": "%"}, {"measurement": "Activity", "setting": "MDA-MB-231 [10]", "value": 34.2, "unit": "%"}, {"measurement": "Activity", "setting": "[11]", "value": 11.35, "unit": "g/dL"}, {"measurement": "Activity", "setting": "[12]", "value": 0.34, "unit": "mg/dL"}, {"measurement": "Activity", "setting": "MCF7 [13]", "value": 52.8, "unit": "%"}, {"measurement": "Activity", "setting": "[14]", "value": 31.03, "unit": "g"}, {"measurement": "Activity", "setting": "MCF7 [15]", "value": 5, "unit": "%"}, {"measurement": "Activity", "setting": "[16]", "value": 10.13, "unit": "g/dL"}, {"measurement": "Activity", "setting": "[17]", "value": 100.11, "unit": "mg/dL"}, {"measurement": "Activity", "setting": "MCF7 [18]", "value": 20.64, "unit": "%"}, {"measurement": "Activity", "setting": "[19]", "value": 0.65, "unit": "g/dL"}, {"measurement": "Activity", "setting": "MCF7 [20]", "value": 12.8, "unit": "%"}, {"measurement": "Activity", "setting": "[21]", "value": 111.17, "unit": "mg/dL"}, {"measurement": "IC50", "setting": "THP-1", "value": 12.6, "unit": "µM"}, {"measurement": "Activity", "setting": "MDA-MB-231 [22]", "value": 15.05, "unit": "%"}, {"measurement": "Activity", "setting": "[23]", "value": 22.34, "unit": "U/L"}, {"measurement": "Activity", "setting": "[24]", "value": 27.32, "unit": "U/L"}, {"measurement": "Activity", "setting": "MDA-MB-231 [25]", "value": 3.5, "unit": "%"}, {"measurement": "Activity", "setting": "[26]", "value": 94.42, "unit": "mg/dL"}, {"measurement": "Activity", "setting": "MDA-MB-231 [27]", "value": 2.1, "unit": "%"}, {"measurement": "IC50", "setting": "A549", "value": 5.85, "unit": "µM"}, {"measurement": "Activity", "setting": "MDA-MB-231 [28]", "value": 14.7, "unit": "%"}, {"measurement": "Activity", "setting": "MCF7 [29]", "value": 77.8, "unit": "%"}, {"measurement": "Activity", "setting": "[30]", "value": 2.87, "unit": "mg/mL"}, {"measurement": "Activity", "setting": "MDA-MB-231 [31]", "value": 2, "unit": "%"}, {"measurement": "Activity", "setting": "MDA-MB-231 [32]", "value": 7.9, "unit": "%"}, {"measurement": "Activity", "setting": "MCF7 [33]", "value": 2.2, "unit": "%"}]}
